In patent publication US20250380696A1, “METHOD FOR CONTROLLING UNDESIRED PLANTS AND PROMOTING GROWTH OF USEFUL PLANTS” (ISHIHARA SANGYO KAISHA, LTD., priority 2022, published 2025):

Tests used:
Assay type in all cases: in vivo
[1] = tested on: goosegrass (Eleusine indica); assay: (11) Herbicidal effect test, pot, spray at 7.0 to 8.3 leaf stage; settings: 3rd day after spraying
Description: (§1) [formula] • X: growth inhibition rate when treated with α (g/ha) of compound A, • Y: growth inhibition rate when treated with β (g/ha) of compound B, • E: growth inhibition rate expected when treated with α (g/ha) of compound A and β (g/ha) of compound B (expected value).
Upland soil was put in a 1/1,000,000 hectare pot, and seeds of goosegrass (Eleusine indica) were sown. When goosegrass reached 7.0 to 8.3 leaf stage, a water-based suspension containing tiafenacil as the active ingredient, prepared by a conventional method for preparing a water-based suspension, and a wettable powder containing tri-allate as the active ingredient, prepared by a conventional method for preparing a wettable powder, an emulsifiable concentrate containing pethoxamid as the active ingredient (tradename: Successor 600, manufactured by Stähler Suisse SA) or an emulsifiable concentrate containing dimethenamid-P as the active ingredient (tradename: Fieldstar P emulsifiable concentrate, manufactured by BASF) were diluted with water (in an amount corresponding to 200 liter per hectare) containing 0.5 vol % of an agricultural spreader (tradename: Destiny HC, manufactured by Winfield Solutions, LLC.) and sprayed by a small spray gun (model: W-101-132G, manufactured by ANEST IWATA Corporation). On the 3rd day after spraying, the state of growth of the goosegrass was visually observed, and the growth inhibition rate (%) was obtained in accordance with the evaluation standards described in the above (1) herbicidal effect test, and the results are shown in Table 11. Further, the expected value of the growth inhibition rate (%) was calculated in accordance with the Colby's formula described in the above (1) herbicidal effect test, and the results are also shown in Table 11.

[2] = tested on: waterhemp (Amaranthus tuberculatus); assay: (12) Herbicidal effect test, pot, spray at 6.0 to 8.5 leaf stage; settings: 13th day after spraying
Description: as §1
(§2) Upland soil was put in a 1/1,000,000 hectare pot, and seeds of waterhemp (Amaranthus tuberculatus) were sown. When waterhemp reached 6.0 to 8.5 leaf stage, a water-based suspension containing tiafenacil as the active ingredient, prepared by a conventional method for preparing a water-based suspension, and an emulsifiable concentrate containing S-metolachlor as the active ingredient (tradename: Dual Gold, manufactured by Syngenta), a wettable powder containing metribuzin as the active ingredient (tradename: SENCOR wettable powder, manufactured by Bayer Crop Science) or water dispersible granules containing pyroxasulfone as the active ingredient (tradename: Sakura, manufactured by Bayer Crop Science) were diluted with water (in an amount corresponding to 200 liter per hectare) containing 0.5 vol % of an agricultural spreader (tradename: Destiny HC, manufactured by Winfield Solutions, LLC.) and sprayed by a small spray gun (model: W-101-132G, manufactured by ANEST IWATA Corporation). On the 13th day after spraying, the state of growth of the waterhemp was visually observed, and the growth inhibition rate (%) was obtained in accordance with the evaluation standards described in the above (1) herbicidal effect test, and the results are shown in Table 12. Further, the expected value of the growth inhibition rate (%) was calculated in accordance with the Colby's formula described in the above (1) herbicidal effect test, and the results are also shown in Table 12.

[3] = tested on: goosegrass (Eleusine indica); assay: (10) Herbicidal effect test, pot, spray at 6.5 to 7.8 leaf stage; settings: 13th day after spraying
Description: as §1
as §2, with “of goosegrass (Eleusine indica)” for “of waterhemp (Amaranthus tuberculatus)”, “When the goosegrass” for “When waterhemp”, “reached 6.5” for “reached 6.0”, “to 7.8” for “to 8.5”, “the goosegrass” for “the waterhemp”, “Table 10.” for “Table 12.”

[4] = tested on: horseweed (Conyza canadensis); assay: (14) Herbicidal effect test, pot, spray at diameter of 12 to 17 cm; settings: 6th day after spraying
Description: as §1
Upland soil was put in a 1/1,000,000 hectare pot, and seeds of horseweed (Conyza canadensis) were sown. When the horseweed reached a diameter of 12 to 17 cm, a water-based suspension containing tiafenacil as the active ingredient, prepared by a conventional method for preparing a water-based suspension, and an emulsifiable concentrate containing S-metolachlor as the active ingredient (tradename: Dual Gold, manufactured by Syngenta), a wettable powder containing metribuzin as the active ingredient (tradename: SENCOR wettable powder, manufactured by Bayer Crop Science) or water dispersible granules containing pyroxasulfone as the active ingredient (tradename: Sakura, manufactured by Bayer Crop Science) were diluted with water (in an amount corresponding to 200 liter per hectare) containing 0.5 vol % of an agricultural spreader (tradename: Destiny HC, manufactured by Winfield Solutions, LLC.) and sprayed by a small spray gun (model: W-101-132G, manufactured by ANEST IWATA Corporation). On the 6th day after spraying, the state of growth of the horseweed was visually observed, and the growth inhibition rate (%) was obtained in accordance with the evaluation standards described in the above (1) herbicidal effect test, and the results are shown in Table 14. Further, the expected value of the growth inhibition rate (%) was calculated in accordance with the Colby's formula described in the above (1) herbicidal effect test, and the results are also shown in Table 14.

With `CCOCCN(C(=O)CCl)C(=C(C)C)c1ccccc1` [pethoxamid] the “Growth inhibition rate (%) Measured value” ([1]; Dose 93.8 g/ha) was 0%, the “Growth inhibition rate (%) Measured value” ([1]; Dose 375 g/ha) was 0% and the “Growth inhibition rate (%) Measured value” ([1]; Dose 750 g/ha) was 0%.
`CSc1nnc(C(C)(C)C)c(=O)n1N` [metribuzin] gave an inhibition at 9.38 g/ha ([2]; Amaranthus tuberculatus, Dose 9.38 g/ha, read-out: Growth inhibition rate (%) Measured value) of 5%, an inhibition at 550 g/ha ([2]; Amaranthus tuberculatus, Dose 550 g/ha, read-out: Growth inhibition rate (%) Measured value) of 37% and an inhibition at 1100 g/ha ([2]; Amaranthus tuberculatus, Dose 1100 g/ha, read-out: Growth inhibition rate (%) Measured value) of 50%. For the same compound, the inhibition at 9.38 g/ha ([3]; Eleusine indica, Dose 9.38 g/ha, read-out: Growth inhibition rate (%) Measured value) was 7%, the inhibition at 550 g/ha ([3]; Eleusine indica, Dose 550 g/ha, read-out: Growth inhibition rate (%) Measured value) was 68% and the inhibition at 1100 g/ha ([3]; Eleusine indica, Dose 1100 g/ha, read-out: Growth inhibition rate (%) Measured value) was 72%. The inhibition at 9.38 g/ha ([4]; Erigeron canadensis, Dose 9.38 g/ha, read-out: Growth inhibition rate (%) Measured value) was 0%, the inhibition at 550 g/ha ([4]; Erigeron canadensis, Dose 550 g/ha, read-out: Growth inhibition rate (%) Measured value) was 5% and the inhibition at 1100 g/ha ([4]; Erigeron canadensis, Dose 1100 g/ha, read-out: Growth inhibition rate (%) Measured value) was 5%.
With `COC(=O)CCNC(=O)C(C)Sc1cc(-n2c(=O)cc(C(F)(F)F)n(C)c2=O)c(F)cc1Cl` (stereo not shown) [tiafenacil] the “Growth inhibition rate (%) Measured value” ([2]; Dose 6.25 g/ha) was 33%, the “Growth inhibition rate (%) Measured value” ([3]; Dose 6.25 g/ha) was 30% and the “Growth inhibition rate (%) Measured value” ([4]; Dose 6.25 g/ha) was 23%. The “Growth inhibition rate (%) Measured value” ([1]; Dose 6.25 g/ha) was 77%.
`Cn1nc(C(F)(F)F)c(CS(=O)(=O)C2=NOC(C)(C)C2)c1OC(F)F` [pyroxasulfone] gave an inhibition at 7.5 g/ha ([2]; Amaranthus tuberculatus, Dose 7.5 g/ha, read-out: Growth inhibition rate (%) Measured value) of 10%, an inhibition at 250 g/ha ([2]; Amaranthus tuberculatus, Dose 250 g/ha, read-out: Growth inhibition rate (%) Measured value) of 17% and an inhibition at 500 g/ha ([2]; Amaranthus tuberculatus, Dose 500 g/ha, read-out: Growth inhibition rate (%) Measured value) of 13%. For the same compound, the inhibition at 7.5 g/ha ([3]; Eleusine indica, Dose 7.5 g/ha, read-out: Growth inhibition rate (%) Measured value) was 0%, the inhibition at 250 g/ha ([3]; Eleusine indica, Dose 250 g/ha, read-out: Growth inhibition rate (%) Measured value) was 2% and the inhibition at 500 g/ha ([3]; Eleusine indica, Dose 500 g/ha, read-out: Growth inhibition rate (%) Measured value) was 2%. For the same compound, the inhibition at 7.5 g/ha ([4]; Erigeron canadensis, Dose 7.5 g/ha, read-out: Growth inhibition rate (%) Measured value) was 0%, the inhibition at 250 g/ha ([4]; Erigeron canadensis, Dose 250 g/ha, read-out: Growth inhibition rate (%) Measured value) was 0% and the inhibition at 500 g/ha ([4]; Erigeron canadensis, Dose 500 g/ha, read-out: Growth inhibition rate (%) Measured value) was 0%.
For `COC[C@H](C)N(C(=O)CCl)c1c(C)csc1C` [dimethenamid-P], the “Growth inhibition rate (%) Measured value” ([1]; Dose 60 g/ha) was 0%, the “Growth inhibition rate (%) Measured value” ([1]; Dose 375 g/ha) was 0% and the “Growth inhibition rate (%) Measured value” ([1]; Dose 750 g/ha) was 0%.
With `CC(C)N(C(=O)SCC(Cl)=C(Cl)Cl)C(C)C` [tri-allate] the inhibition at 75 g/ha ([1]; Eleusine indica, Dose 75 g/ha, read-out: Growth inhibition rate (%) Measured value) was 0%, the inhibition at 625 g/ha ([1]; Eleusine indica, Dose 625 g/ha, read-out: Growth inhibition rate (%) Measured value) was 0% and the inhibition at 1250 g/ha ([1]; Eleusine indica, Dose 1250 g/ha, read-out: Growth inhibition rate (%) Measured value) was 5%.
In the case of `CCc1cccc(C)c1N(C(=O)CCl)[C@@H](C)COC` [S-metolachlor], the “Growth inhibition rate (%) Measured value” ([2]; Dose 7.5 g/ha) is reported as 0%, the “Growth inhibition rate (%) Measured value” ([2]; Dose 375 g/ha) is reported as 0% and the “Growth inhibition rate (%) Measured value” ([2]; Dose 750 g/ha) is reported as 0%. For the same compound, the “Growth inhibition rate (%) Measured value” ([3]; Dose 7.5 g/ha) was 7%, the “Growth inhibition rate (%) Measured value” ([3]; Dose 375 g/ha) was 7% and the “Growth inhibition rate (%) Measured value” ([3]; Dose 750 g/ha) was 7%. For the same compound, the “Growth inhibition rate (%) Measured value” ([4]; Dose 7.5 g/ha) was 0%, the “Growth inhibition rate (%) Measured value” ([4]; Dose 375 g/ha) was 0% and the “Growth inhibition rate (%) Measured value” ([4]; Dose 750 g/ha) was 0%.
